Measurements reported in PubChem BioAssay AID2060483 (Molecular Pharmacology Branch, DTP, NCI, 2025).
pIC50: −log10 of the molar value. Where “and” joins values, the source holds several entries; their conditions need not be identical. Equal values may be shown once. Each block holds one compound with its values, some of them ahead of it.

Tested on: K24384-001-R-PDC complex spheroids, viability
Assay: Anticancer human tumor K24384-001-R-PDC patient-derived pancreatic adenocarcinoma cell line growth inhibition [GQUAD]
Conditions: for viability, T/C: stronger effect = lower value
Description: DNA G-quadruplex Stabilizer Agents in Combinations in Complex Spheroids
A high-throughput screen of multi-cell type tumor spheroids was designed to identify active combinations of DNA G-quadruplex stabilizer agents and targeted small molecules. Complex spheroids include a stromal component modeled by human endothelial cells (HUVEC) and fibroblasts modeled by human mesenchymal stem cells (MSCs). The concentration ranges selected for each drug and investigational agent were based upon clinically achievable concentrations if the clinical Cmax of the agent was known.
Compounds. The drugs and investigational agents: pidnarulex (CX-5461; NSC782164), APTO-253 (NSC789042), BRACO-19 (NSC847499), peposertib (NSC802822), ceralasertib (NSC780249), elimusertib (NSC800525), camonsertib (NSC841442), AZD-1390 (NSC803789), olaparib (NSC753686), talazoparib (NSC767125), ART-558 (NSC835418), sotorasib (NSC818433), MRTX-1133 (NSC836407), SN-38 (NSC673596), topotecan (NSC609699), etoposide (NSC141540), doxorubicin (NSC123127), gemcitabine (NSC613327), 5-fluorouracil (NSC19893), paclitaxel (NSC125973), vemurafenib (NSC761431), panobinostat (NSC761190), R-306465 (JNJ-16241199; NSC773264), adavosertib (NSC754352), TP-3654 (NSC805149), carboplatin (NSC241240), KSQ-4279 (NSC840948), and staurosporine (NSC755774) were obtained from the National Cancer Institute (NCI) Developmental Therapeutics Program Chemical Repository (34). The FDA-approved anticancer drug set is available from the NCI Developmental Therapeutics Program. […] The stock solutions were prepared in dimethyl sulfoxide (DMSO, Sigma-Aldrich, St. Louis, MO, cat. D2650) at 800-fold the tested concentration and stored at -70 degrees C prior to their use. All drugs and investigational agents were tested over a range starting from a high concentration at or near the clinical Cmax and decreasing in half-log increments. If the clinical Cmax for an agent had not been determined, the highest concentration tested was 10 microM.
2.3 Cell Culture. All cells were maintained in an incubator at 37 degrees C and 5% CO2 with 95% humidity. The PDC lines were cultured according to standard operating procedures established by the NCI PDMR. All PDCs were thawed and cultured in Matrigel-coated flasks prepared with a working solution of 1X Ham's F-12 nutrient mix, without supplementation (Invitrogen, cat. 11765054), 100 U/mL penicillin-streptomycin (Invitrogen, cat. 15140122), and 2.5% Matrigel (Corning Inc., cat. 354248) for the first three passages. The 857933-349-R-J2-PDC line was cultured in 6C/Colon 1B media, which includes advanced DMEM/F-12 (Thermo Fisher Scientific, cat. 12634028), 10 mM HEPES (Thermo Fisher Scientific, cat. 15630080), 1X GlutaMAX supplement (Thermo Fisher Scientific, cat. 35050061), 0.1 mg/mL primocin (InvivoGen, cat. ant-pm-2), 10% defined fetal bovine serum, heat inactivated (HyClone Laboratories Inc., cat. SH30070.03HI), 50% L-WRN conditioned media (ATCC, cat. CRL-3276), 1.25 mM N-Acetyl-L-cysteine (Sigma-Aldrich, cat. A9165), 10 mM nicotinamide (Sigma-Aldrich, cat. N0636), 1X B-27 supplement (Thermo Fisher Scientific, cat. 17504044), 1X N-2 supplement (Thermo Fisher Scientific, cat. 17502048), 10 microM Y-27632 dihydrochloride (Tocris Bioscience, cat. 1254), and 50 ng/mL human EGF recombinant protein (Thermo Fisher Scientific, cat. PHG0311). The 485176-168-R4-J1-PDC line was cultured in Panc media, which includes all 6C/Colon 1B media components plus 100 ng/mL human FGF-10 (Thermo Fisher Scientific, cat. 100-26), 500 nM SB-431542 (Selleckchem, cat. S1067), and gastrin (Tocris, cat. 3006).
[…]

[1] = curve of first compound, second compound 0.0316 µM
[2] = curve of first compound, second compound 0.1 µM
[3] = curve of first compound, second compound 0.316 µM
[4] = curve of first compound, second compound 1 µM
[5] = curve of first compound, second compound 3.16 µM
[6] = curve of first compound, second compound 10 µM
[7] = second compound 0.0316 µM, first compound 0.0316 µM
[8] = second compound 0.0316 µM, first compound 0.1 µM
[9] = second compound 0.0316 µM, first compound 0.316 µM
[10] = second compound 0.0316 µM, first compound 1 µM
[11] = second compound 0.0316 µM, first compound 3.16 µM
[12] = second compound 0.0316 µM, first compound 10 µM
[13] = second compound 0.1 µM, first compound 0.0316 µM
[14] = second compound 0.1 µM, first compound 0.1 µM
[15] = second compound 0.1 µM, first compound 0.316 µM
[16] = second compound 0.1 µM, first compound 1 µM
[17] = second compound 0.1 µM, first compound 3.16 µM
[18] = second compound 0.1 µM, first compound 10 µM
[19] = second compound 0.316 µM, first compound 0.0316 µM
[20] = second compound 0.316 µM, first compound 0.1 µM
[21] = second compound 0.316 µM, first compound 0.316 µM
[22] = second compound 0.316 µM, first compound 1 µM
[23] = second compound 0.316 µM, first compound 3.16 µM
[24] = second compound 0.316 µM, first compound 10 µM
[25] = second compound 1 µM, first compound 0.0316 µM
[26] = second compound 1 µM, first compound 0.1 µM
[27] = second compound 1 µM, first compound 0.316 µM
[28] = second compound 1 µM, first compound 1 µM
[29] = second compound 1 µM, first compound 3.16 µM
[30] = second compound 1 µM, first compound 10 µM
[31] = second compound 3.16 µM, first compound 0.0316 µM
[32] = second compound 3.16 µM, first compound 0.1 µM
[33] = second compound 3.16 µM, first compound 0.316 µM
[34] = second compound 3.16 µM, first compound 1 µM
[35] = second compound 3.16 µM, first compound 3.16 µM
[36] = second compound 3.16 µM, first compound 10 µM
[37] = second compound 10 µM, first compound 0.0316 µM
[38] = second compound 10 µM, first compound 0.1 µM
[39] = second compound 10 µM, first compound 0.316 µM
[40] = second compound 10 µM, first compound 1 µM
[41] = second compound 10 µM, first compound 3.16 µM
[42] = second compound 10 µM, first compound 10 µM
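Further: spheroids exposed to compounds for seven days.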

Structure (SMILES): CC1COCCN1c1cc(C2(S(C)(=N)=O)CC2)nc(-c2ccnc3[nH]ccc23)n1 (stereo not drawn) + CN(C)c1ccc(Nc2c3ccc(NC(=O)CCN4CCCC4)cc3nc3cc(NC(=O)CCN4CCCC4)ccc23)cc1
pIC50 [1]: 5.82
pIC50 [2]: 5.80
pIC50 [3]: 5.77
pIC50 [4]: 5.77
pIC50 [5]: 5.77
pIC50 [6]: 5.77
viability, T/C [7]: 95.2%
viability, T/C [8]: 90.1%
viability, T/C [9]: 113%
viability, T/C [10]: 64.1%
viability, T/C [11]: 28.2%
viability, T/C [12]: 24.2%
viability, T/C [13]: 90.3%
viability, T/C [14]: 115%
viability, T/C [15]: 84.4%
viability, T/C [16]: 60.9%
viability, T/C [17]: 36.4%
viability, T/C [18]: 23.2%
viability, T/C [19]: 83.3%
viability, T/C [20]: 92.9%
viability, T/C [21]: 86.1%
viability, T/C [22]: 56.9%
viability, T/C [23]: 42.2%
viability, T/C [24]: 26.1%
viability, T/C [25]: 86.5%
viability, T/C [26]: 104%
viability, T/C [27]: 86.2%
viability, T/C [28]: 62.2%
viability, T/C [29]: 35.9%
viability, T/C [30]: 32.1%
viability, T/C [31]: 90.2%
viability, T/C [32]: 98.6%
viability, T/C [33]: 99.3%
viability, T/C [34]: 60.8%
viability, T/C [35]: 39.6%
viability, T/C [36]: 23.4%
viability, T/C [37]: 91.6%
viability, T/C [38]: 102%
viability, T/C [39]: 86.9%
viability, T/C [40]: 62.9%
viability, T/C [41]: 35.4%
viability, T/C [42]: 28.2%

pIC50 [1]: 5.09
pIC50 [2]: 5.20
pIC50 [3]: < 5.00
pIC50 [4]: > 7.50
pIC50 [5]: > 7.50
pIC50 [6]: > 7.50
Structure (SMILES): CCCS(=O)(=O)Nc1ccc(F)c(C(=O)c2c[nH]c3ncc(-c4ccc(Cl)cc4)cc23)c1F + Cc1cnc(CNC(=O)c2c(=O)c3ccc(N4CCCN(C)CC4)nc3n3c2sc2ccccc23)cn1
viability, T/C [7]: 78%
viability, T/C [8]: 84.4%
viability, T/C [9]: 113%
viability, T/C [10]: 93.8%
viability, T/C [11]: 105%
viability, T/C [12]: 39.5%
viability, T/C [13]: 50.8%
viability, T/C [14]: 84.2%
viability, T/C [15]: 63.4%
viability, T/C [16]: 90.9%
viability, T/C [17]: 90.6%
viability, T/C [18]: 33.5%
viability, T/C [19]: 48.5%
viability, T/C [20]: 56.8%
viability, T/C [21]: 62%
viability, T/C [22]: 64.8%
viability, T/C [23]: 65.9%
viability, T/C [24]: 31.1%
viability, T/C [25]: 37.2%
viability, T/C [26]: 36%
viability, T/C [27]: 33.6%
viability, T/C [28]: 48.3%
viability, T/C [29]: 60.2%
viability, T/C [30]: 29%
viability, T/C [31]: 39.4%
viability, T/C [32]: 35.2%
viability, T/C [33]: 37.1%
viability, T/C [34]: 34.6%
viability, T/C [35]: 39.5%
viability, T/C [36]: 16.2%
viability, T/C [37]: 0.22%
viability, T/C [38]: 0.41%
viability, T/C [39]: 0.78%
viability, T/C [40]: 0.33%
viability, T/C [41]: 0.23%
viability, T/C [42]: 0.18%

pIC50 (curve of compound): 5.58 and 5.64 and 5.32
Structure (SMILES): COc1ccc([C@@H](O)c2cc(-c3ncnc4cc(N5CCOCC5)ccc34)c(F)cc2Cl)nn1
viability, T/C (compound 0.0316 µM): 92.4% and 98.4% and 120%
viability, T/C (compound 0.1 µM): 99.1% and 95.7% and 103%
viability, T/C (compound 0.316 µM): 103% and 83.4% and 83.3%
viability, T/C (compound 1 µM): 72.3% and 65% and 84.7%
viability, T/C (compound 3.16 µM): 48.4% and 44.9% and 56%
viability, T/C (compound 10 µM): 29.8% and 22.7% and 35.5%

pIC50 (curve of compound): 6.02 and 5.88 and 6.05
Structure (SMILES): COc1cc(C2c3cc4c(cc3C(OC3OC5COC(C)OC5C(O)C3O)C3COC(=O)C23)OCO4)cc(OC)c1O (stereo not drawn)
viability, T/C (compound 0.0316 µM): 103% and 98.4% and 102%
viability, T/C (compound 0.1 µM): 98% (2×) and 98.4%
viability, T/C (compound 0.316 µM): 75.9% and 85.9% and 71.3%
viability, T/C (compound 1 µM): 48.9% and 52.9% and 48.6%
viability, T/C (compound 3.16 µM): 37.1% and 41.1% and 35.2%
viability, T/C (compound 10 µM): 30.8% and 35.4% and 31.2%
